The results in this text go back to patent publication US20110117055A1, “Methods of Treating Hepatitis C Virus with Oxoacetamide Compounds” (priority 2009, published 2011).

One series has as its system Jc1-luc virus. Description: Luciferase compound activity assay, Jc1-luc virus in Huh7.5.1 cells. It counts as cell-based, HCV genotype-2a. The following applies: Hepatitis C virus, Huh-7.5.1. The procedure:
Cell culture. Human hepatoma Huh-7.5.1 cells or Huh7 cells were grown at 37° C. and 5% CO2 in Dulbecco's modification of Eagle's medium supplemented with 2 mM L-glutamine, 1 mM Sodium pyruvate, 1× Non-essential amino acids mix, 100 units/ml penicillin, 100 μg/ml streptomycin, and 10% fetal bovine serum.
Virus plasmids. The chimeric full-length construct pFL-JC1, a GT2a/2a chimera consisting of structural genes from the J6CF isolate and non-structural genes from the JFH1 isolate, has been described previously. See Backes et al., J. Virol. 2010, 84:5775-89; Schaller et al., J. Virol., 2007, 81:4591-603; Koutsoudakis et al., J. Virol. 2006, 80:5308-20; Pietschmann et al., Proc. Natl. Acad. Sci., 2006, 103:7408-13. The firefly luciferase gene has been inserted to pFL-Jc1 to develop a plamid pFL-Jc1-luc for use as a reporter of viral replication. See Amako et al., J. Virol. 2009, 83:9237-46. Specifically, the pFL-JC1-luc construct can be utilized to develop an infectious HCV cell culture system to test novel HCV inhibitors, including entry inhibitors, in vitro using luciferase expression.
Preparation of infectious HCV. Jc1-luc or HCV2a/2aChRluc RNA was in vitro transcribed using T7 RiboMAX™ Express Large Scale RNA Production System (Promega). After RNA clean up (Qiagen RNeasy Mini kit), transfection was performed as previously described.
400 microliters of a Huh-7.5.1 or Huh7 cell suspension (10^7 cells/ml) was placed in a 0.4-cm cuvette with 10 μg of Jc1-luc or HCV2a/2aChRluc RNA and electroporated (Bio-Rad Gene Pulser System) using a single square wave at 260 V and 25 ms pulse length. The cells were plated in 15-cm tissue culture dishes (Corning) and supernatant was harvested and concentrated using a centrifugal filter (Amicon 100K, Millipore).
Luciferase compound activity assay. Cell culture and luciferase compound assays were performed as previously described. See Wyles et al., J. Virol. 2007, 81:3005-8; Wyles et al., Antimicrob Agents Chemother. 2009, 53:2660-2; Grünberger et al., J. Infect. Dis. 2008, 197:42-5; Wyles et al., Antimicrob Agents Chemother, 2008, 52:1862-4. Briefly, Huh7.5.1 cells were seeded into 96-well plates at a density of 10,000 cells per well in 100 μl medium. After incubating overnight for attachment, Jc1-luc virus at an MOI 0.01 was added to wells with or without compounds at the specified concentrations. All conditions were run in triplicate. After 24 hours, medium was aspirated and replaced with 100 μl of complete medium containing an identical concentration of compound(s) followed by additional 48 hour incubation. The luciferase assay (Bright-Glo; Promega) was carried out according to the manufacturer's instructions. Luciferase activity was determined using a microplate luminometer (Veritas microplate luminometer; Turner Biosystems). […]

Series [1] can be described thus: Cytotoxicity of anti-HCV compounds (CC50, Table 4). The following applies: human, Huh7.5.1 cells.
In another series the test system is HCV2aChLuc virus. Description: In vitro HCVcc entry assay: HCV2aChLuc virus infection of Huh7 cells, Renilla luciferase read-out. Type of series: cell-based, HCV genotype 2a. The following applies: for IC50: Hepatitis C virus, Huh-7, read-out: Activity class (IC50), tested according to the method of Example 3.
A further series deals with HCV1a/2a chimeric virus. Nature of the series: HCV entry assay with HCV1a/2a chimeric virus. It counts as cell-based, HCV genotype 1a. The following applies: ribavirin alone, 15 μM. From the text: Since HCV genotype 1 is the most prevalent genotype among the variants of HCV, we constructed an HCV1a/2a chimeric infectious clone with two cell-culture adaptive mutations introduced. Sequences for the structural proteins (including C, E1, and E2), p7, and NS2 were derived from HCV genotype 1a H77 strain. The rest of nonstructural proteins (NS3 to NS5B) and 3′ NTR were derived from HCV genotype 2a JFH strain. 5′NTR was originated from HCV2aJ6 (FIG. 7). […] Therefore, both HCV1a/2aCh virus and HCV1a/2aChLuc virus with Y361H and Q1251L mutations were successively produced in Huh7 cells and used for HCV entry assay.

The next series deals with HCV2a/2aChRluc virus. Nature of the series: Compound 5 with ribavirin or VX950 in the HCV2a/2aChRluc system. Type of series: cell-based, HCV genotype 2a. The following applies: ribavirin alone, 15 μM. Here is the method:
100 μl of serially diluted compound solutions (100, 30, 10, 3, 1, 0.3, and 0.1 nM) was inoculated onto Huh-7 cells in a 96-well plate. Subsequently, 100 ul (TCID50, ˜0.6) of HCV2a/2aChRluc virus was added onto the cells. After co-incubation for 72 hrs, Renilla luciferase expression was determined (Renilla Luciferase Assay, Promega) and reported as relative light units (RLU).
Data analysis. Determinations of compound interactions were quantified based on the median-effect principle described by Chou and Talalay. Chou T., Talalay P., Adv. Enzyme. Regul., 1984, 22:27-55. Combination indices (CIs) were determined using Calcusyn (Biosoft) for each experiment at the EC50, EC75, and EC90 levels. Five replicates per condition were evaluated. A CI<0.9 was considered synergistic, a CI≧0.9 and ≦[…] was considered additive, and a CI>1.1 was deemed antagonistic.

Another series concerns HCV2aChLuc (NS3:A156S). Description: Infectivity of protease mutant virus versus wild type in the presence of compounds. Type of series: cell-based, HCV genotype 2a. The following applies: HCV2aChLuc (NS3:A156S) vs wild type HCV2aChLuc. The source says:
Therefore, we introduced A156S mutation in the backbone of HCV2aChLuc genome and investigated the infectivity of the mutant virus in the presence of compounds.

“Also recorded” adds a separate entry of the source.

As for `COc1ccc2c(O[C@@H]3C[C@H]4C(=O)N[C@]5(C(=O)O)C[C@H]5/C=C\CCCCC[C@H](NC(=O)OC5CCCC5)C(=O)N4C3)cc(-c3csc(NC(C)C)n3)nc2c1` [BILN2061, reference compound], the EC50 with Jc1-luc virus is 492 ± 56.7 nM. This compound displayed a CC50 in series [1] of 35000 nM. Consider `NC(=O)c1ncn([C@@H]2O[C@H](CO)[C@@H](O)[C@H]2O)n1` [ribavirin, reference compound], for which, in the series on HCV2aChLuc virus (ribavirin alone, 15 μM), the “inhibitory effect on infectivity of 2a chimeric virus” value is on record as “did not have significant inhibitory effect”. Besides, the “inhibitory effect on infectivity of HCV1a chimeric virus” value in the series on HCV1a/2a chimeric virus is listed as “did not have significant inhibitory effect”. For the same compound, in the series with HCV2a/2aChRluc virus, the “inhibitory effect on the infectivity of 2a chimeric virus” value is listed as “did not have significant inhibitory effect”. As to `C[C@@]1(O)[C@H](O)[C@@H](CO)O[C@H]1n1cnc2c(N)ncnc21` [2′-C-methyladenosine, reference compound], the EC50 with Jc1-luc virus was 252 ± 33.5 nM. This compound had a CC50 in series [1] greater than 100000 nM. Consider `CCC[C@H](NC(=O)[C@@H]1[C@H]2CCC[C@H]2CN1C(=O)[C@@H](NC(=O)[C@@H](NC(=O)c1cnccn1)C1CCCCC1)C(C)(C)C)C(=O)C(=O)NC1CC1` [VX-950, reference compound], for which the “resistance of NS3:A156S mutant virus versus wild type (inhibition of infectivity)” value in the series with HCV2aChLuc (NS3:A156S) is on record as “high level resistance; also recorded: resistant”; with HCV2aChLuc (NS3:A156S) (listed as VX950), “highly resistant”.

For the compound `COc1c(NC(=O)C(=O)c2ccc(OCCN3CCOCC3)c3ccccc23)cc(C(F)(F)F)cc1NS(C)(=O)=O` [Compound 116], the IC50 in the series with HCV2aChLuc virus was greater than 500 nM. Consider `CNc1ccc(-c2ccc(C(=O)C(=O)Nc3cc(C(C)(C)C)cc(NS(C)(=O)=O)c3OC)c3ccccc23)cn1` [Compound 131], for which the IC50 in the series with HCV2aChLuc virus is greater than 500 nM. Regarding `COc1c(NC(=O)C(=O)c2ccc(Nc3ccnc(N4CCOCC4)n3)c3ccccc23)cc(C(C)(C)C)cc1C(N)=O` [Compound 124], the half-maximal inhibitory concentration (IC50) in the series on HCV2aChLuc virus was greater than 500 nM. In the case of `CC(C)(C)c1cc(NC(=O)C(=O)c2ccc(OCCN3CCOCC3)c3ccccc23)c(O)c(C(N)=O)c1` [Compound 33], the concentration for half-maximal inhibition (IC50) with HCV2aChLuc virus is greater than 500 nM. Regarding `COc1c(NC(=O)C(=O)c2ccc(OCCN3CCN(C(C)=O)CC3)c3ccccc23)cc(C(C)(C)C)cc1NS(C)(=O)=O` [Compound 54], the IC50 in the series on HCV2aChLuc virus lay within 5 to 500 nM. Consider `COc1ccc(C(C)(C)C)cc1NC(=O)C(=O)c1ccc(-c2ccc(N(C)C)nc2)c2ccccc12` [Compound 126], for which the concentration for half-maximal inhibition (IC50) with HCV2aChLuc virus is greater than 500 nM. Regarding `COc1ccc(C(C)(C)c2ccccc2)cc1NC(=O)C(=O)c1ccc(OCCN2CCOCC2)c2ccccc12` [Compound 16, N-(2-methoxy-5-(2-phenylpropan-2-yl)phenyl)-2-(4-(2-morpholinoethoxy)naphthalen-1-yl)-2-oxoacetamide], the IC50 in the series with HCV2aChLuc virus was less than 5 nM. As for `O=C(Nc1cc(Br)cnc1Cl)C(=O)c1ccc(OCCN2CCOCC2)c2ccccc12` [Compound 119], the IC50 in the series on HCV2aChLuc virus lay within 5 to 500 nM.

As to `COc1c(NC(=O)C(=O)c2ccc(OCCN3CCOCC3)c3ccccc23)cc(C(C)(C)C)cc1C(=O)N1CCNCC1` [Compound 97], the half-inhibitory concentration (IC50) in the series with HCV2aChLuc virus was greater than 500 nM. As to `COc1ccc(C(C)(C)C)cc1NC(=O)C(=O)c1ccc(OC(C)C)c2ccccc12` [Compound 20, N-(5-tert-butyl-2-methoxyphenyl)-2-oxo-2-[4-(propan-2-yloxy)naphthalen-1-yl]acetamide], the half-inhibitory concentration (IC50) with HCV2aChLuc virus was less than 5 nM.

As to `CC(C)(C)c1cc(NC(=O)C(=O)c2ccc(OCCN3CCOCC3)c3ccccc23)[nH]n1` [Compound 44], in the series on HCV2aChLuc virus, the 50% inhibitory concentration (IC50) is greater than 500 nM. On to `CCNC(=O)c1cc(C(C)(C)C)cc(NC(=O)C(=O)c2ccc(OC)c3ccccc23)c1OC` [Compound 8, 5-tert-butyl-N-ethyl-2-methoxy-3-(2-(4-methoxynaphthalen-1-yl)-2-oxoacetamido)benzamide], for which, in the series on HCV2aChLuc virus, the IC50 was less than 5 nM.

In the case of `COc1c(NC(=O)C(=O)c2ccc(-c3ccc(N(C)C)nc3)c3ccccc23)cc(C(C)(C)C)cc1NS(C)(=O)=O` [Compound 125], the 50% inhibitory concentration (IC50) in the series on HCV2aChLuc virus is greater than 500 nM. On the same count and under the same terms, next, `COc1c(C#N)cc(C(C)(C)C)cc1NC(=O)C(=O)c1ccc(OCCN2CCOCC2)c2ccccc12` [Compound 4, N-(5-tert-butyl-3-cyano-2-methoxyphenyl)-2-(4-(2-morpholinoethoxy)naphthalen-1-yl)-2-oxoacetamide]: less than 5 nM; `CC(C)Oc1ccc(C(C)(C)C)cc1NC(=O)C(=O)c1ccc(OCCN2CCOCC2)c2ccccc12` [Compound 42]: greater than 500 nM; `CCC(C)(C)c1cc(NC(=O)C(=O)c2ccc(OCCN3CCOCC3)c3ccccc23)c(OC)c(C(C)(C)CC)c1` [Compound 23]: 5 to 500 nM.

As to `COc1ccc(C(C)(C)C)cc1NC(=O)C(=O)c1ccc(-c2cccnc2)c2ccccc12` [Compound 127], the IC50 with HCV2aChLuc virus is greater than 500 nM.

The term EC50 denotes the concentration giving half of the maximal effect. A word on the CC50: it is the concentration giving 50% cytotoxicity. Low readings indicate greater toxicity to the cells, high ones lower toxicity to the cells. One may read the IC50 as the concentration that inhibits the measured activity by half.
